Experiment [1] has as its system T1, Kinesin-like protein KIF11 (Homo sapiens), P52732 [D130V,A133D].
T1 sequence (whole entry): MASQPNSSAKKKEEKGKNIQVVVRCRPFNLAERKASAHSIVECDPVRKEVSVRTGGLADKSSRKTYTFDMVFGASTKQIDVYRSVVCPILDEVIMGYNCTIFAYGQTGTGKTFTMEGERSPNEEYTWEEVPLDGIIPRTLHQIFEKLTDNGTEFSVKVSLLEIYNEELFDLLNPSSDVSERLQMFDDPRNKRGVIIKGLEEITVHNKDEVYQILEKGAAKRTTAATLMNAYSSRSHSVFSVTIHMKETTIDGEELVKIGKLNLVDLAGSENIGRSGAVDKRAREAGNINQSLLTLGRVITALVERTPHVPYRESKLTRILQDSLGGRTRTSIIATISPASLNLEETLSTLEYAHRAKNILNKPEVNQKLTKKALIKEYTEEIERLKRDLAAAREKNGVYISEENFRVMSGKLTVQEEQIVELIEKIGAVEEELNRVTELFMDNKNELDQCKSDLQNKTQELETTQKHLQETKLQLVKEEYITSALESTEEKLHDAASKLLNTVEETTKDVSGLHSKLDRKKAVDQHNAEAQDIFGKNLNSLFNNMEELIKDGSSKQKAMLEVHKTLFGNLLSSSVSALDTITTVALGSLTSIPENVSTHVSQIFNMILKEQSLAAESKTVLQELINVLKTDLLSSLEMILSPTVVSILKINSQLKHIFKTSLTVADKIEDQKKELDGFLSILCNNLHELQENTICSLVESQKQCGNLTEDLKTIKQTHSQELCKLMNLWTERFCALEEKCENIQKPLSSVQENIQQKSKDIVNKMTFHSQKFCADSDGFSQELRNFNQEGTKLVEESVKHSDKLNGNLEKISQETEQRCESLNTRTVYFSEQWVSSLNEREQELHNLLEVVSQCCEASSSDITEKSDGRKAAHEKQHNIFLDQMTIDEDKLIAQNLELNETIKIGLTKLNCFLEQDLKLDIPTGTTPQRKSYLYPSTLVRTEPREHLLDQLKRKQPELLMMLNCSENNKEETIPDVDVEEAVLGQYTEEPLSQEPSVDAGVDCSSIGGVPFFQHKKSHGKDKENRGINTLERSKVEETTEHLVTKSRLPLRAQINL
In words: Inhibition of microtubule-stimulated ATPase activity of human Eg5 D130V/A133D mutant expressed in Escherichia coli BL21 by pyruvate kinase/lactate dehydrogenase-linked assay relative to control.

In experiment [2] the target is T2, Kinesin-like protein KIF11 (Homo sapiens) (UniProt P52732).
T2 sequence (whole entry): T1 sequence (whole entry) with V130D, D133A
Briefly: Inhibition of microtubule-stimulated ATPase activity of N-terminal His-6-tagged human wild type Eg5 (1 to 368) expressed in Escherichia coli BL21 by pyruvate kinase/lactate dehydrogenase-linked assay relative to control.

Experiment [3] relates to T3, Kinesin-like protein KIF11 (Homo sapiens), P52732 [A133D].
T3 sequence (whole entry): T1 sequence (whole entry) with V130D
In words: Inhibition of microtubule-stimulated ATPase activity of human Eg5 A133D mutant expressed in Escherichia coli BL21 by pyruvate kinase/lactate dehydrogenase-linked assay relative to control.

In experiment [4] the test system is T4, Kinesin-like protein KIF11 (Homo sapiens), P52732 [D130V].
T4 sequence (whole entry): T1 sequence (whole entry) with D133A
Briefly: Inhibition of microtubule-stimulated ATPase activity of human Eg5 D130V mutant expressed in Escherichia coli BL21 by pyruvate kinase/lactate dehydrogenase-linked assay relative to control.

Molecules are shown by their SMILES. Substitutions are numbered along the chain they refer to.

In the case of `Cc1ccc(C(=O)N(CCCN)[C@@H](c2oc3cc(Cl)ccc3c(=O)c2Cc2ccccc2)C(C)C)cc1`, the ICmax was determined as 10% in experiment [1], 95% in experiment [2], 50% in experiment [3] and 50% in experiment [4].

Values taken from ChEMBL document CHEMBL2417484, “Mitotic kinesin Eg5 overcomes inhibition to the phase I/II clinical candidate SB743921 by an allosteric resistance mechanism” (J Med Chem, 2013).
